Test results taken from patent US6812010B1, “Method for enzymatic preparation of homogentisate” (Aventis Cropscience SA, priority 1997, dated 2004).

How the values were obtained:
[1] = system: HPP-oxidase (protein extract from Arthrobacter globiformis); test: HPP-oxidase activity assay with inhibition by an HPPD inhibitor (HPLC detection of HPA); type: biochemical; settings: 100 μM of HPPD inhibitor; 30° C., 5 min
Procedure: The cell pellet, which is approximately 3.4 g, is resuspended in 7 ml of extraction buffer (0.05 M potassium phosphate pH 7.5, 0.1 mM TPP, 0.1 mM MgCl2 and 5 mM mercaptoethanol) and sonicated twice at 23 kHz for 2.5 min. The resulting suspension is centrifuged at 44,000×g for 20 min. The harvested supernatant is again centrifuged at 100,000×g for 60 min. 0.7 ml of 2% protamine sulphate in the extraction buffer is added to the new 7-ml supernatant, followed by gentle stirring. The precipitate which forms is removed by a centrifugation at 20,000×g for 20 min. Ammonium sulphate is gradually added to the supernatant thus obtained so as to reach 60% saturation. This new preparation is stirred for 30 min., and the precipitate formed harvested by centrifugation at 20,000×g for 20 min. The pellet is redissolved in 0.5 ml of extraction buffer and aliquoted in 0.1-ml fractions, these fractions being kept at −80° C. before use.
The HPP-oxidase activity is measured in a 96-well microtitration plate with 200 μl of reaction per well consisting of […] of 67 mM sodium phosphate pH 7.4, 10 μl of 13.4 mM glutathione, 10 μl of 67 mM MgCl2, 10 μl of 26.7 mM TPP, 10 μl of 67 μM FAD, […] (i.e. approximately 6 μg) and 10 μl of 2.5 mM HPP. […]
The plate is then centrifuged at 2000 rpm for 15 min., and the supernatant is analysed by HPLC. […]

[2] = system: HPA-hydroxylase (protein extract from Pseudomonas acidovorans); test: HPA-hydroxylase activity assay with inhibition by an HPPD inhibitor (HPLC detection of HMO); type: biochemical; settings: 100 μM of HPPD inhibitor; 30° C., 5 min
Procedure: The cell pellet, which is approximately 0.5 g, is resuspended in 1.5 ml of extraction buffer (0.1 M potassium phosphate pH 7.2, 1 mM DTE and 5 mM MgMgSO4) and sonicated twice at 23 kHz for 2.5 min. The resulting suspension is centrifuged at 44,000×g for 20 min. The harvested supernatant is again centrifuged at 100,000×g for 60 min. The new supernatant is aliquoted in 0.1-ml fractions, these fractions being kept at −80° C. before use. The HPA-hydroxylase activity is measured in a 96-well microtitration plate with 200 μl of reaction per well consisting of 150 μl of 0.1 M sodium phosphate fits pH 7.2, 10 μl of 20 mM DTE, 10 μl of 3 mM NADH, 15 μl of 67 μM FAD, 10 μl of protein (i.e. approximately 7 μg) and 5 μl of 10 mM HPA. When an assay for inhibition by an HPPD inhibitor is carried out, 2 μl of 10 mM 4-[4-trifluoromethyl-2-(methylsulphonyl)benzoyl]-5-cyclopropylisoxazole are added to a phosphate buffer containing 20% of DMSO. The reaction is initiated by adding the substrate, HPA; it takes place at 30° C. for 5 min. with stirring. The reaction is stopped by adding 33 μl of 25% perchloric acid. The plate is then centrifuged at 2000 rpm for 15 min., and the supernatant is analysed by HPLC. 10 μl of the supernatant is injected onto a Spherisorb ODS2 column equilibrated with buffer A (5.5% acetonitrile, 0.1% TFA) at the flow rate of 1.5 ml/min. The detection is carried out at 292 nm. […]

## CS(=O)(=O)c1cc(C(F)(F)F)ccc1C(=O)c1cnoc1C1CC1 [HPPD inhibitor, 4-[4-trifluoromethyl-2-(methylsulphonyl)benzoyl]-5-cyclopropylisoxazole]
[1]
  inhibition of the enzyme transforming HPP into HPA: not inhibited
[2]
  inhibition of the enzyme transforming HPA into HMO: not inhibited
